Columns and labels:
[1] = test system: Male Wistar-Unilever rats; experiment: Forced swimming test in rat model for depression (Example 1); format: in vivo
Procedure: Male Wistar-Unilever rats (HsdCpb:WU) (Harlan, Horst, The Netherlands), weighing 200 to 225 g are weighed and randomly divided into 4 groups (n=12). Cocoa extract according to the invention comprising by weight 54-58% polyphenols, 8-9% theobromine, and 0.5-1.5% phenylethylamine is dissolved in spring water and stirred until homogenization just before its administration at the doses of 24 and 48 mg/kg BW, PO, in a volume of administration of 10 ml/kg BW.
The test product is orally administered for 14 days twice a day (2×12 and […]) in the morning and in the afternoon Imipramine (Sigma, France) was stored at room temperature and prepared fresh before testing. It is dissolved in spring water and stirred until homogenization just before its administration at a dose of 15 mg/kg BW, PO, in a volume of administration of 10 ml/kg. Imipramine is administered once a day.
(§1) An open field (40 cm high×60 cm in diameter) divided into 9 areas (8 equal squares and the central zone) is used for the measurement of locomotor and behavioral activity, to exclude the possibility that immobility is due to locomotion problems. The experimental devices for the forced swimming test are plexiglas cylinders (50 cm high×20 cm in diameter) filled to 30 cm depth with water at 25° C. In the slightly lit test room, a CCD-TV camera allows the rats to be observed and filmed on VHS-videotapes from a neighbouring room. During the experimental period, rats are weighed 3 times per week, i.e. Monday, Wednesday and Friday. Each rat is individually placed for 3 min in the center of the open field device 5 hours after the 13th treatment and 15 min before the forced swim test pretest session. This test is performed in order to test the effects of the products used on the locomotor activity of the animals and confirm that the results in the forced swim relate to the animal's mental state as opposed to locomotor ability. Immobility is defined as absence of swimming activity other than that necessary to keep the rat's head above the water. Imipramine (15 mg/kg BW, PO) is used as the antidepressant reference substance.
The test product and the vehicle are orally administered for 14 days, twice a day in the morning and in the afternoon. On D13, the products are administered just after the pretest session which lasted 15 minutes. On D14 the products are administered five hours and one hour prior to the forced swimming test. The test session lasts 5 minutes. The first five minutes of the initial 15-min swimming pretest and the 5-min swimming test session are videotaped for scoring the duration of immobility. Imipramine (15 mg/kg BW, PO) is used as the antidepressant reference substance.

[2] = test system: Male Wistar-Unilever rats; experiment: Open field test of locomotor and behavioral activity (Example 1); format: in vivo, rat; settings: 3 min, 5 hours after the 13th treatment; CPE 24 and 48 mg/kg, Imipramine 15 mg/kg PO
Procedure: as §1

[3] = Body weight during the experimental period (Example 1); format: in vivo, rat; settings: 14-day treatment; CPE 24 and 48 mg/kg, Imipramine 15 mg/kg PO; IMI difference from D5 to D14
Procedure: as §1

Structure (SMILES): CN(C)CCCN1c2ccccc2CCc2ccccc21 [IMI, Imipramine]
- duration of immobility, Test (Mean ± SEM) ([1]; 5-min test session, D14, 15 mg/kg BW PO once a day, n = 12): 10.33 ± 1.79
- change of duration of immobility from pretest to test session (paired t-test) ([1]; CPE 24 and 48 mg/kg, Imipramine 15 mg/kg PO): significantly decreased
- duration of immobility in comparison with vehicle, pretest session (Dunnett's t test) ([1]; pretest session after a 13 day-period of treatment, Imipramine 15 mg/kg PO): significantly reduced
- duration of immobility, Pretest (Mean ± SEM) ([1]; pretest session, first 5 min, D13, 15 mg/kg BW PO once a day, n = 12): 21.25 ± 3.70
- durations of immobility in comparison with vehicle, test session (Dunnett's t test) ([1]; test session D14, CPE 24 and 48 mg/kg, Imipramine 15 mg/kg PO): significantly reduced
- overt behavioral changes or motor dysfunction in the open field test [2]: Neither administration of Imipramine nor CPE showed significant differences
- body weight compared with the other groups [3]: significantly lower
